Assays:
[1] = system: phospho-BTK in SU-DHL-4; test: phospho-BTK in DLBCL cells; assay type: cell-based
[2] = system: phospho-AKT in OCI-LY-8 cells; test: phospho-AKT after BCR crosslinking; assay type: cell-based
Experimental: Activation of the PI3K pathway is an important component of normal B-cell receptor (BCR) signaling and has been implicated in the pathogenesis of DLBCL. […] There was rapid modulation of phospho-AKT and phospho-PRAS40 by 30 minutes, whereas modulation of phospho-S6 was not detected until after 8 hours.
These biochemical findings indicate a mechanistic rationale for combination of PI3K-δ,γ and BTK inhibition.

[3] = system: SU-DHL-4 GCB DLBCL cell line; test: Cell viability with Compound 292, ibrutinib or combination, 72 h CellTiter Glo; assay type: cell-based; conditions: SU-DHL-4, 72 hours
[4] = system: WSU-NHL; conditions: in combination with Compound 292
Experimental: (§1) The method is described as follows. Cells are thawed from a liquid nitrogen preserved state. Once cells have been expanded and divide at their expected doubling times, screening begins. Cells are seeded in growth media in either black 1536-well or 384-well tissue culture treated plates. […] These Tzero (T0) plates are read using ultra-sensitive luminescence on Envision plate readers (Perkin Elmer). […] All data points are collected via automated processes, quality controlled and analyzed using Zalicus software.
(§2) I ranges from 0% (when T=V) to 100% (when T=0). […] The measure of effect in the experiment can be the inhibition of cellular response relative to the untreated level (vehicle alone). For untreated vehicle and treated levels V and T, a fractional inhibition 1=1−T/V is calculated. The inhibition ranges from 0% at the untreated level to 100% when T=0 Inhibition levels are negative for agents that actually increase levels. Other effect measures, such as an activity ratio r=T/V may be more appropriate for some assays. When activity ratios (e.g, fold increase over […] control) are being used, the effect can be measured using an induction I=1n(T/V). With this definition, all effect expressions are the same as for inhibition.
(§3) Growth Inhibition (GI) is used as a measure of cell viability. […] A GI reading of 100% represents complete growth inhibition-T72 compound-treated and T0 vehicle signals are matched. […] A GI reading of 200% represents complete death of all cells in the culture well. Compounds reaching an activity plateau of GI 200% are considered cytotoxic. GI is calculated by applying the following test and equation: […]
(§4) Combination analysis data were collected in a 6×6 dose matrix. Synergy is calculated by comparing a combination's response to those of its single compound, against the drug-with-itself dose-additive reference model. Deviations from dose additivity may be assessed visually on an isobologram or numerically with a Combination Index (CI). […] Additive effect is CI=1.0. […] Antagonistic effect is CI>1.0.
(§5) To measure combination effects in excess of Loewe additivity, a scalar measure to characterize the strength of synergistic interaction termed the Synergy Score is devised. The Synergy Score is calculated as: […]
(§6) The fractional inhibition for each component agent and combination point in the matrix is calculated relative to the median of all vehicle-treated control wells. The Synergy Score equation integrates the experimentally-observed activity volume at each point in the matrix in excess of a model surface numerically derived from the activity of the component agents using the Loewe model for additivity. Additional terms in the Synergy Score equation (above) are used to normalize for various dilution factors used for individual agents and to allow for comparison of synergy scores across an entire experiment. The inclusion of positive inhibition gating or an Idata multiplier removes noise near the zero effect level, and biases results for synergistic interactions at that occur at high activity levels.
(§7) Loewe Volume (Loewe Vol) is used to assess the overall magnitude of the combination interaction in excess of the Loewe additivity model. Loewe Volume is particularly useful when distinguishing synergistic increases in a phenotypic activity (positive Loewe Volume) versus synergistic antagonisms (negative Loewe Volume). […] This model defines additivity as a non-synergistic combination interaction where the combination dose matrix surface should be indistinguishable from either drug crossed with itself.

[5] = system: HBL-1; conditions: in combination with Compound 292
Experimental: as §1, §2, §3, §4, §5, §6, §7

[6] = system: Jeko-1; conditions: in combination with Compound 292
Experimental: as §1, §2, §3, §4, §5, §6, §7

[7] = system: KARPAS-422; conditions: in combination with Compound 292
Experimental: as §1, §2, §3, §4, §5, §6, §7

[8] = system: DOHH-2; conditions: in combination with Compound 292
Experimental: as §1, §2, §3, §4, §5, §6, §7

[9] = system: SU-DHL-10-epst; conditions: in combination with Compound 292
Experimental: as §1, §2, §3, §4, §5, §6, §7

[10] = system: OCI-LY3; conditions: in combination with Compound 292
Experimental: as §1, §2, §3, §4, §5, §6, §7

[11] = system: OCI-Ly7; conditions: in combination with Compound 292
Experimental: as §1, §2, §3, §4, §5, §6, §7

[12] = system: OPM-2; conditions: in combination with Compound 292
Experimental: as §1, §2, §3, §4, §5, §6, §7

[13] = system: SU-DHL-4-epst; conditions: in combination with Compound 292
Experimental: as §1, §2, §3, §4, §5, §6, §7

[14] = system: NCI-H929; conditions: in combination with Compound 292
Experimental: as §1, §2, §3, §4, §5, §6, §7

[15] = system: U-2932; conditions: in combination with Compound 292
Experimental: as §1, §2, §3, §4, §5, §6, §7

[16] = system: Farage; conditions: in combination with Compound 292
Experimental: as §1, §2, §3, §4, §5, §6, §7

[17] = system: HH; conditions: in combination with Compound 292
Experimental: as §1, §2, §3, §4, §5, §6, §7

[18] = system: KARPAS-299; conditions: in combination with Compound 292
Experimental: as §1, §2, §3, §4, §5, §6, §7

[19] = system: TMD8; conditions: in combination with Compound 292
Experimental: as §1, §2, §3, §4, §5, §6, §7

[20] = system: GRANTA-519; conditions: in combination with Compound 292
Experimental: as §1, §2, §3, §4, §5, §6, §7

[21] = system: Mino; conditions: in combination with Compound 292
Experimental: as §1, §2, §3, §4, §5, §6, §7

[22] = system: RL; test: Combination with BTK inhibitor, 72 h ATPLite, 6x6 dose matrix (follicular lymphoma); assay type: cell-based; conditions: in combination with Compound 292
Experimental: as §1, §2, §3, §4, §5, §6, §7

C=CC(=O)N1CCC[C@@H](n2nc(-c3ccc(Oc4ccccc4)cc3)c3c(N)ncnc32)C1 [ibrutinib, 1-[(3R)-3-[4-Amino-3-(4-phenoxyphenyl)pyrazolo[3,4-d]pyrimidin-1-yl]piperidin-1-yl]prop-2-en-1-one]
S (S=0.01 to <0.5): CI50 (inhibition) [4] | CI50 (growth inhibition) [5] | CI50 (growth inhibition) [6] | CI50 (growth inhibition) [7] | CI50 (inhibition) [7] | CI50 (growth inhibition) [8] | CI50 (inhibition) [8] | CI50 (growth inhibition) [9] | CI50 (inhibition) [9] | CI50 (growth inhibition) [13] | CI50 (inhibition) [13] | CI50 (inhibition) [14] | CI50 (growth inhibition) [15] | CI50 (growth inhibition) [16] | CI50 (inhibition) [16] | CI50 (growth inhibition) [17] | CI50 (inhibition) [17] | CI50 (growth inhibition) [19] | CI50 (inhibition) [19] | CI50 (growth inhibition) [20] | CI50 (inhibition) [21]
T (T=0.5 to <0.7): CI50 (growth inhibition) [4] | CI50 (inhibition) [6] | CI50 (inhibition) [15] | CI50 (growth inhibition) [21]
robust inhibition: inhibition of phospho-BTK [1]
A2 (A2=1 to <3): Synergy Score (growth inhibition) [6] | Synergy Score (inhibition) [6] | Synergy Score (growth inhibition) [7] | Synergy Score (inhibition) [7] | Synergy Score (growth inhibition) [14] | Synergy Score (growth inhibition) [15] | Synergy Score (growth inhibition) [17] | Synergy Score (inhibition) [17] | Synergy Score (growth inhibition) [20] | Synergy Score (inhibition) [21] | Synergy Score (growth inhibition) [22] | Synergy Score (inhibition) [22]
W (W=≧1): CI50 (inhibition) [22]
U (U=0.7 to <1): CI50 (growth inhibition) [14] | CI50 (growth inhibition) [22]
dose dependently inhibited viability: cell viability, monotherapy [3]
A3 (A3=>3): Synergy Score (growth inhibition) [4] | Synergy Score (inhibition) [4] | Synergy Score (growth inhibition) [5] | Synergy Score (growth inhibition) [8] | Synergy Score (inhibition) [8] | Synergy Score (growth inhibition) [9] | Synergy Score (inhibition) [9] | Synergy Score (growth inhibition) [13] | Synergy Score (inhibition) [13] | Synergy Score (growth inhibition) [16] | Synergy Score (inhibition) [16] | Synergy Score (growth inhibition) [19] | Synergy Score (inhibition) [19] | Synergy Score (growth inhibition) [21]
A1 (A1=0.0001 to <1): Synergy Score (inhibition) [5] | Synergy Score (growth inhibition) [10] | Synergy Score (inhibition) [10] | Synergy Score (growth inhibition) [11] | Synergy Score (inhibition) [11] | Synergy Score (growth inhibition) [12] | Synergy Score (inhibition) [12] | Synergy Score (inhibition) [14] | Synergy Score (inhibition) [15] | Synergy Score (growth inhibition) [18] | Synergy Score (inhibition) [18] | Synergy Score (inhibition) [20]
only partially inhibited: inhibition of the increase in phospho-AKT [2]

Reference: patent publication US20160113932A1, “TREATMENT OF CANCERS USING PI3 KINASE ISOFORM MODULATORS” (INFINITY PHARMACEUTICALS, INC., priority 2013, published 2016)
